Measured values as given in patent US20240317756A1, “INHIBITORS OF BRUTON'S TYROSINE KINASE” (Pharmacyclics LLC, priority 2006, published 2024).

What was measured:
BTK = BTK (Homo sapiens (Human), UniProt Q06187); experiment: in vitro HotSpot kinase assay, BTK; format: biochemical; settings: Table 2, 1 uM ATP, one hour incubation with inhibitor
LCK = LCK (Homo sapiens (Human), UniProt P06239); experiment: in vitro HotSpot kinase assay, LCK; format: biochemical; settings: Table 2, 1 uM ATP, one hour incubation with inhibitor
JAK3 = JAK3 (Homo sapiens (Human), UniProt P52333); experiment: in vitro HotSpot kinase assay, JAK3; format: biochemical; settings: Table 2, 1 uM ATP, one hour incubation with inhibitor
lymphoma cell line DOHH2 = experiment: DOHH2 cell proliferation assay (Alamar Blue); format: cell-based
Procedure: After 72 hours, cell number was measured using Alamar Blue using manufacturer's protocol. A dilution series of untreated cells was run in parallel to verify that the Alamar Blue assay reliably reflected cell number and that growth conditions were not limiting. […] GI50 values were confirmed in two or more separate experiments for each cell line.
Analogs are generated that are Btk inhibitors and that are cytotoxic to the lymphoma cell line DOHH2. For the DOHH2 cell proliferation assay, cells were seeded in 96-well plates in standard growth media (RPMI+10% fetal calf serum) and compounds were added in a 9-point dilution series ranging from 10 uM to 0.04 uM with DMSO at 0.1% final concentration in all wells. After 72 hours, cell number was measured using Alamar Blue using manufacturer's protocol. A dilution series of untreated cells was run in parallel to verify that the Alamar Blue assay reliably reflected cell number and that growth conditions were not limiting.

EGFR = EGFR (Homo sapiens (Human), UniProt P00533); experiment: in vitro HotSpot kinase assay, EGFR; format: biochemical; settings: Table 2, 1 uM ATP, one hour incubation with inhibitor
ITK = ITK (Homo sapiens (Human), UniProt Q08881); experiment: in vitro HotSpot kinase assay, ITK; format: biochemical; settings: Table 2, 1 uM ATP, one hour incubation with inhibitor
[1] = plasma concentrations after oral dosing of rats; format: in vivo; settings: single oral dose 8 mg/kg each in combination
Procedure: Blood samples were collected at 0.0833 (5 minutes), 0.333 (20 minutes), 1, 3, 6, 9, and 24 hours post-dosing from orally dosed rats.
Male jugular vein cannulated rats were administered a single dose of all test compounds at 8 mg/kg each, in combination by oral gavage. Dose volumes were adjusted based on body weight data collected immediately prior to dosing. Blood samples were collected at 0.0833 (5 minutes), 0.333 (20 minutes), 1, 3, 6, 9, and 24 hours post-dosing from orally dosed rats. The samples were collected into plasma separator Microtainer tubes with anticoagulant (lithium heparin). Plasma samples were prepared by centrifugation (5 min at 5000×g), and at least 100 μL were transferred to storage tubes and stored frozen at −80° C. Plasma samples were thawed and 75 uL aliquots were transferred to centrifuge tubes to which 10 μL aliquots of internal standard solution (1 μg/mL) were added. The samples were not diluted with blank plasma prior to further processing. Soluble proteins were precipitated by the addition of 200 μL of acetonitrile, followed by centrifugation (20 min at 16,000×g). The samples were evaporated to dryness and reconstituted in 200 μL of water containing 0.2% formic acid and 10% methanol. All samples were loaded onto an autosampler maintained at 6° C. and evaluated for concentrations of test compounds using LC-MS/MS.

[2] = glutathione binding assay; settings: 5 mM glutathione, 10 μM Btk inhibitor, room temperature, HPLC
Procedure: A calculated value (e.g (1/Btk IC50)/Glutathione conjugation rate) as shown in the Table 2) is used to compare compounds for their ratio between potency at inhibiting their target and their non-specific binding to other SH groups, such as those in glutathione. […] Calculated ratios such as these are used to quantitatively compare different compounds and select compounds for further study.
For the glutathione binding assays, 5 mM glutathione, 10 μM Btk inhibitor in DMSO (10 μL) and 6 equivalents of N′N′ Diisopropyl ethyl amine were combined in 1 mL potassium phosphate buffer. The mixture was incubated for 0, 15, 60 minutes at room temperature and the reaction was stopped with 10 equivalents of formic acid. 50 μL of each reaction mixture was injected on HPLC (Mobil Phase A: 0.2% formic acid in water, Mobile Phase B: 0.2% formic acid in acetonitrile, HPLC Column: Metasil Basic 3μ, 150×4.6 mm, 10% B, Gradient: 10% to 90% B, Detection: UV/Vis […]). Rate of reaction was reported as nmole GSH conjugate conversion per minute from the normalized ratio for area under the curve from HPLC chromatograms for both GSH conjugate and the parent.

Chain of JAK3 (P52333 whole entry, species assumed): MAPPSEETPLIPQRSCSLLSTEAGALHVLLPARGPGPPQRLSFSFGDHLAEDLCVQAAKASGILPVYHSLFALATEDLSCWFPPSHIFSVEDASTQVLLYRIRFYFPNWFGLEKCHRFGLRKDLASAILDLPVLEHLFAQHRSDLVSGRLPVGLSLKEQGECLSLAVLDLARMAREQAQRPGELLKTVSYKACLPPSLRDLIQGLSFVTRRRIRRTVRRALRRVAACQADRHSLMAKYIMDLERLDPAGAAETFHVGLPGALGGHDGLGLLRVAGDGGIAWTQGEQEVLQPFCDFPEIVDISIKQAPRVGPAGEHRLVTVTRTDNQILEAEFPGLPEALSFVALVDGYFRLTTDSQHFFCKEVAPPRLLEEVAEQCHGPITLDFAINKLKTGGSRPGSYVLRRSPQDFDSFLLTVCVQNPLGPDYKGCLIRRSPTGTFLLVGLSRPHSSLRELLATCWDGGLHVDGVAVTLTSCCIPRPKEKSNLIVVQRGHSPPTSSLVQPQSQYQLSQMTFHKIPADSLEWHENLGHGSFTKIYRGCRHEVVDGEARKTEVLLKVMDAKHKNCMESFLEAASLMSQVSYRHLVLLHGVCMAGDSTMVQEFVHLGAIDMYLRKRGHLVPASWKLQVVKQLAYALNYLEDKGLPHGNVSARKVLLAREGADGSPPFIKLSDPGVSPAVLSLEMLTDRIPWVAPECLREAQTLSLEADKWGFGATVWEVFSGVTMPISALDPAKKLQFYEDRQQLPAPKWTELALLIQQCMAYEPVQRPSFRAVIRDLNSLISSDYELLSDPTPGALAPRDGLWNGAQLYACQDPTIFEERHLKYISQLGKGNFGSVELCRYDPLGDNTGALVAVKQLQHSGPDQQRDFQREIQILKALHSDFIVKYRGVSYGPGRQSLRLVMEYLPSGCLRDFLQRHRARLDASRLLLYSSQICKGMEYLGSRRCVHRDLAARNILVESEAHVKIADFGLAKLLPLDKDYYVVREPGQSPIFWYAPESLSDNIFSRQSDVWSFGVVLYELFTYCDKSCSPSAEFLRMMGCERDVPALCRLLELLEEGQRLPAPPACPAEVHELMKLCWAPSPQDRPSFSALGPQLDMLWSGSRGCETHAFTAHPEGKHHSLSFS
Chain of BTK (Q06187 whole entry): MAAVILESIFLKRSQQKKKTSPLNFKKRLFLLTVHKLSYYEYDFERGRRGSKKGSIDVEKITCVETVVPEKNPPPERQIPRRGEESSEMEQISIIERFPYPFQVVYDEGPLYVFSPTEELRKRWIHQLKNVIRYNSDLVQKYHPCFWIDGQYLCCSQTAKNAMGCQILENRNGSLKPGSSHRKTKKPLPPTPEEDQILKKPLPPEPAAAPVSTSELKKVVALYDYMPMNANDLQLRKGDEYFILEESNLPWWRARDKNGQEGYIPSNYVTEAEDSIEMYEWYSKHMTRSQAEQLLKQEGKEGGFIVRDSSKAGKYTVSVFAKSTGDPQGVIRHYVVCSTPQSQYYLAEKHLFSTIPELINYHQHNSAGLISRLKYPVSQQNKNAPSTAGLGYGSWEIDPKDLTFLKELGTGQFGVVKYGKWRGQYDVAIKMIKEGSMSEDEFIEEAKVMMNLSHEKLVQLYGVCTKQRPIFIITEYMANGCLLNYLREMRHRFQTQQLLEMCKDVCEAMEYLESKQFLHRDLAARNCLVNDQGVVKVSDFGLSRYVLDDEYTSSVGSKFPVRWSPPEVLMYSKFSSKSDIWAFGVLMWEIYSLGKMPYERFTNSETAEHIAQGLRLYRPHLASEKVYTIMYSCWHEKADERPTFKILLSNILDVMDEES
Chain of ITK (Q08881 whole entry, species assumed): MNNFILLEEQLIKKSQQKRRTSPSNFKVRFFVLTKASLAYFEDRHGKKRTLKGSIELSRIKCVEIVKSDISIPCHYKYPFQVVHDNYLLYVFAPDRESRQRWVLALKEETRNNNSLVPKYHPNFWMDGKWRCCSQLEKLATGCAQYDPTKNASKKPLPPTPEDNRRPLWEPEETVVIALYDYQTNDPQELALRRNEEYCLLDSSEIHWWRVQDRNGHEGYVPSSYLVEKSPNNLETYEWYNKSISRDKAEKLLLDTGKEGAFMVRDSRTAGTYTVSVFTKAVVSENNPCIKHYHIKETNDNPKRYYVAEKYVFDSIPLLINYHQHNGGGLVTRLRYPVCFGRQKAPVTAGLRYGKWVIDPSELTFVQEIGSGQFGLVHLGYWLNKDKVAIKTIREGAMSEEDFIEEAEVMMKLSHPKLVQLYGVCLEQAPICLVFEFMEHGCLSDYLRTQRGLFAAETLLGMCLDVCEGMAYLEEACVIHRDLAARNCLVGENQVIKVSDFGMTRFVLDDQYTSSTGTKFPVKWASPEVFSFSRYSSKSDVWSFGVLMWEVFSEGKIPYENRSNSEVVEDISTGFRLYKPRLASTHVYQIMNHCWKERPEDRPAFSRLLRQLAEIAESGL
Chain of LCK (P06239 whole entry, species assumed): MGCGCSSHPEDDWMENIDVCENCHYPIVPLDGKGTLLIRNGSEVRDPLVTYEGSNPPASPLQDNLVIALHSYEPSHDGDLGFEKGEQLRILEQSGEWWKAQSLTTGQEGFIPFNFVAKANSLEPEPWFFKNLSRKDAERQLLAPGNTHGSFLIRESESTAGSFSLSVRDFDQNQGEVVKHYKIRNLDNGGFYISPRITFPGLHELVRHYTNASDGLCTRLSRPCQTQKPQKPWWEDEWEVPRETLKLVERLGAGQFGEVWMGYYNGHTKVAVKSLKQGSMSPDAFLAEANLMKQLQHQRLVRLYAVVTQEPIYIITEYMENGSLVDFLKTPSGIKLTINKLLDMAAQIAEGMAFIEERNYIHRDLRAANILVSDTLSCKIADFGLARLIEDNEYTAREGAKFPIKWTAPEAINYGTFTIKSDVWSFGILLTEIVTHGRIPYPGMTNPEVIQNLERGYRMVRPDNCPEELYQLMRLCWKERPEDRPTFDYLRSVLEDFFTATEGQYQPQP

Compound	IC50 (BTK) [nM]	IC50 (LCK) [nM]	IC50 (JAK3) [nM]	GI50 (lymphoma cell line DOHH2; Homo sapiens, DOHH-2, 72 hours) [nM]	IC50 (EGFR) [nM]	IC50 (ITK) [nM]	in vivo half-life [1]	GI50 (lymphoma cell line DOHH2; 72 hours) [nM]	Glutathione Conj Rate [2] [nmol/min]
C=CC(=O)N1CCC[C@@H]1Cn1nc(-c2ccc(Oc3ccccc3)cc2)c2c(N)ncnc21 [Compound 13, 1-((R)-2-((4-amino-3-(4-phenoxyphenyl)-1H-pyrazolo[3,4-d]pyrimidin-1-yl)methyl)pyrrolidin-1-yl)prop-2-en-1-one]	0.67	1.56	13000	240	18.8	3010	–	–	–
C=CC(=O)N(C)CCn1nc(-c2ccc(Oc3ccccc3)cc2)c2c(N)ncnc21 [Compound 19, N-(2-(4-amino-3-(4-phenoxyphenyl)-1H-pyrazolo[3,4-d]pyrimidin-1-yl)ethyl)-N-methylacrylamide]	1.58	6.62	6000	690	–	535	–	–	–
CC#CC(=O)N1CCC[C@H]1Cn1nc(-c2ccc(Oc3ccccc3)cc2)c2c(N)ncnc21 [Compound 16, 1-((S)-2-((4-amino-3-(4-phenoxyphenyl)-1H-pyrazolo[3,4-d]pyrimidin-1-yl)methyl)pyrrolidin-1-yl)but-2-yn-1-one]	3.14	3.82	> 10000	210	2810	> 10000	–	–	–
C=CC(=O)N1CCC[C@H]1Cn1nc(-c2ccc(Oc3ccccc3)cc2)c2c(N)ncnc21 [Compound 14, 1-((S)-2-((4-amino-3-(4-phenoxyphenyl)-1H-pyrazolo[3,4-d]pyrimidin-1-yl)methyl)pyrrolidin-1-yl)prop-2-en-1-one]	0.39	9.24	1460	370	2.3	592	–	–	–
CN(C)C/C=C/C(=O)N[C@H]1CC[C@@H](n2nc(-c3ccc(Oc4ccccc4)cc3)c3c(N)ncnc32)CC1 [Compound 8, (E)-N-((1s,4s)-4-(4-amino-3-(4-phenoxyphenyl)-1H-pyrazolo[3,4-d]pyrimidin-1-yl)cyclohexyl)-4-(dimethylamino)but-2-enamide]	1.4	–	–	–	83.4	–	significantly longer in vivo half-life	–	–
Nc1ncnc2c1c(-c1ccc(Oc3ccccc3)cc1)nn2[C@H]1CC[C@@H](NC(=O)/C=C/CN2CCOCC2)CC1 [Compound 25, (E)-N-((1s,4s)-4-(4-amino-3-(4-phenoxyphenyl)-1H-pyrazolo[3,4-d]pyrimidin-1-yl)cyclohexyl)-4-morpholinobut-2-enamide]	3.48	25.8	> 10000	–	273	> 10000	–	50	–
Nc1ncnc2c1c(-c1ccc(Oc3ccccc3)cc1)nn2C1CCCN(C(=O)/C=C/CN2CCOCC2)C1 (stereo not drawn) [Compound 5, (E)-1-(3-(4-amino-3-(4-phenoxyphenyl)-1H-pyrazolo[3,4-d]pyrimidin-1-yl)piperidin-1-yl)-4-morpholinobut-2-en-1-one]	5.6	–	–	–	326	–	–	–	0.004
C=CC(=O)NCCn1nc(-c2ccc(Oc3ccccc3)cc2)c2c(N)ncnc21 [Compound 23, N-(2-(4-amino-3-(4-phenoxyphenyl)-1H-pyrazolo[3,4-d]pyrimidin-1-yl)ethyl)acrylamide]	0.32	208	3310	110	70.5	830	–	–	–
CC#CC(=O)N1CCC[C@@H]1Cn1nc(-c2ccc(Oc3ccccc3)cc2)c2c(N)ncnc21 [Compound 15, 1((R)-2-((4-amino-3-(4-phenoxyphenyl)-1H-pyrazolo[3,4-d]pyrimidin-1-yl)methyl)pyrrolidin-1-yl)but-2-yn-1-one]	4.16	5.9	> 10000	590	289	21100	–	–	–
Nc1ncnc2c1c(-c1ccc(Oc3ccccc3)cc1)nn2[C@@H]1CCCN(C(=O)/C=C/CN2CCOCC2)C1 [Compound 24, (E)-1-((R)-3-(4-amino-3-(4-phenoxyphenyl)-1H-pyrazolo[3,4-d]pyrimidin-1-yl)piperidin-1-yl)-4-morpholinobut-2-en-1-one]	0.89	235	9080	440	384	476	–	–	–
Nc1ncnc2c1c(-c1ccc(Oc3ccccc3)cc1)nn2C1CCN(C(=O)/C=C/CN2CCOCC2)CC1 [Compound 20]	4.07	98.6	> 10000	–	304	7990	–	390	–
CC#CC(=O)N[C@H]1CC[C@@H](n2nc(-c3ccc(Oc4ccccc4)cc3)c3c(N)ncnc32)CC1 [Compound 22, N-((1s,4s)-4-(4-amino-3-(4-phenoxyphenyl)-1H-pyrazolo[3,4-d]pyrimidin-1-yl)cyclohexyl)but-2-ynamide]	1.57	22.1	> 10000	–	156	3690	–	< 40	0.014
Nc1ncnc2c1c(-c1ccc(Oc3ccccc3)cc1)nn2C[C@@H]1CCCN1C(=O)/C=C/CN1CCOCC1 [Compound 21]	4.15	1350	> 10000	–	6240	> 10000	–	1530	–
(E)-4-(N-(2-hydroxyethyl)-N-methylamino)-1-(3-(4-phenoxyphenyl)-1H-pyrazolo[3,4-d]pyrimidin-1-yl)piperidin-1-yl)but-2-en-1-one [Compound 3]	21	–	–	–	74.5	–	–	–	–
C=CC(=O)N[C@H]1CC[C@H](n2nc(-c3ccc(Oc4ccccc4)cc3)c3c(N)ncnc32)CC1 [Compound 10, N-((1r,4r)-4-(4-amino-3-(4-phenoxyphenyl)-1H-pyrazolo[3,4-d]pyrimidin-1-yl)cyclohexyl)acrylamide]	–	–	> 10000	< 30	–	1950	–	–	–
C=CC(=O)N1CCC(n2nc(-c3ccc(Oc4ccccc4)cc3)c3c(N)ncnc32)CC1 [Compound 6]	3.1	–	–	–	–	–	–	–	0.39
CC#CC(=O)N1CCC[C@@H](n2nc(-c3ccc(Oc4ccccc4)cc3)c3c(N)ncnc32)C1 [Compound 17, 1-((R)-3-(4-amino-3-(4-phenoxyphenyl)-1H-pyrazolo[3,4-d]pyrimidin-1-yl)piperidin-1-yl)but-2-yn-1-one]	2	2.07	> 10000	210	435	2330	–	–	0.0243
CN(C)C/C=C/C(=O)N[C@H]1CC[C@H](n2nc(-c3ccc(Oc4ccccc4)cc3)c3c(N)ncnc32)CC1 [Compound 18]	1.38	0.76	> 10000	–	22.5	2540	–	< 30	–
CN(C)C/C=C/C(=O)N1CCC[C@@H]1Cn1nc(-c2ccc(Oc3ccccc3)cc2)c2c(N)ncnc21 [Compound 11, (E)-1-((R)-2-((4-amino-3-(4-phenoxyphenyl)-1H-pyrazolo[3,4-d]pyrimidin-1-yl)methyl)pyrolidin-1-yl)-4-(dimethylamino)but-2-en-1-one]	0.92	2.43	> 10000	> 10000	18.9	6890	–	–	0.004525
